Experimental data reported in patent US20230293698A1, “METAL-ORGANIC FRAMEWORKS DELIVER SMALL MOLECULES AND BIOMACROMOLECULES FOR CANCER IMMUNOTHERAPY” (The University of Chicago, priority 2020, published 2023).

Tests used:
[1] = Toxicity after intravenous injection; assay type: in vivo; details: C57BL/6 mice, biweekly, total of 4 doses
MC38 tumor = details: intratumoral injection, Cy5 label
From the text: The images were processed and analyzed by software sold under the tradename LIVING IMAGE® 4.7.2 (PerkinElmer, Waltham, Massachusetts, United States of America).

Row | Compound | toxicity (bodyweight gains) [1] | fluorescence signal retention in tumor (MC38 tumor)
1 | Ir(DBB)[dF(CF3)ppy]2^+ [DBB^F-Ir] | did not cause toxicity | –
2 | Nc1nc2c(ncn2[C@@H]2O[C@@H]3COP(=O)(O)O[C@H]4[C@@H](O)[C@H](n5cnc6c(N)ncnc65)O[C@@H]4COP(=O)(O)O[C@@H]2[C@@H]3O)c(=O)[nH]1 [cGAMP, cyclic guanosine monophosphate-adenosine monophosphate] | – | diffused and disappeared quickly
